“Also recorded” adds a separate entry of the source.

In the experiment the test system is murine erythrocytes. In words: Effect of DY-65 on GSH, GSSG and GSH:GSSG ratio in murine erythrocytes exposed to hydrogen peroxide. Type of experiment: cell-based, mice. The note with it: DY-65 5 μM. On the procedure:
The in vitro efficacy of peptide DY-65 in suppressing the decrease in the ratio of GSH to GSSG in murine erythrocytes exposed to hydrogen peroxide was tested.
Murine erythrocytes (“Cells”) were prepared by washing freshly harvested whole blood from mice three times in PBS. Cells were resuspended in DMEM at a concentration of 10^6 per mL. All study conditions were evaluated in triplicate.
Hydrogen peroxide (200 μM) was utilized to induce redox stress in murine erythrocytes (“Cells”). Prior to exposure to hydrogen peroxide, cells were randomly allocated to the following experimental groups:
1. Sham (no exposure to hydrogen peroxide; no drug) • a. 2.5 h final incubation
2. Vehicle control (hydrogen peroxide; no drug) • a. 1.0 h final incubation • b. 1.5 h final incubation • c. 2.0 h final incubation • d. 2.5 h final incubation
3. DY-65 (5 μM)+hydrogen peroxide • a. 1.0 h final incubation • b. 1.5 h final incubation • c. 2.0 h final incubation • d. 2.5 h final incubation
Cells at a concentration of 10^6 per mL were incubated with vehicle DMEM (Groups 1 or 2) or peptide DY-65 (Group 3) for 3 hours at 37° C. Thereafter, cells were washed three times with DMEM and resuspended in vehicle DMEM (Group 1) or hydrogen peroxide in DMEM (Groups 2-3) for 1 hour at 37° C.
Thereafter, cells were washed three times with DMEM and resuspended in DMEM at 37° C., 10^6 per mL, with peptide DY-65 (Group 3) or without peptide DY-65 (Groups 1-2). The duration of final incubation was 1.0, 1.5, 2.0, or 2.5 h. Cells were then pelleted, lysed, and processed for measurement of GSH and GSSG using a Glutathione Assay kit sold by Cayman (Chemical Item Number 703002). Data were expressed as micromoles of GSH or GSSG per 1 million erythrocytes.
Given 9 conditions, 3 replicates per condition, and 2 endpoints (GSH and GSSG), a total of 54 wells were incubated.
Data analysis. All values in the figure and text below were expressed as mean±standard deviation (SD) and standard error (SE) of n observations. The results were analyzed by one-way ANOVA followed by Tukey's post-hoc test for multiple comparisons. […]

Regarding “N-acetyl-Cys-Lys-Met-Cys-NH2 (Ac-CKMC-NH2; cysteine pairing not given here) [DY-65]”, the “effect on GSH concentration after hydrogen peroxide” value (hydrogen peroxide 200 μM 1 h, 1 h final incubation, FIG. 2C) is listed as “completely protective; also recorded: increase GSH”. Further, the “effect on GSSG elevation in response to hydrogen peroxide” value (hydrogen peroxide 200 μM 1 h, final incubation 1.0-2.5 h, FIG. 2D) is recorded as “uniformly effective in suppressing the elevation of GSSG; also recorded: decrease GSSG”. Where the note is “hydrogen peroxide 200 μM, earliest time point, 1 h post exposure, FIG. 2E”, the “ratio of GSH to GSSG” value was “clear benefit”.
